Consider seven compounds from ChEMBL document CHEMBL1201862, “PubChem BioAssay data set” (2004).

Structures are written as SMILES. The source made the active and inactive calls.

In general, IC50 refers to the point on the concentration scale where inhibition reaches its midpoint. By EC50 is commonly meant the concentration that produces a half-maximal response. For orientation: AC50 means the concentration giving half of the maximal activity seen. By CC50 is commonly meant the concentration that lowers cell viability or growth by half.

Test [1] deals with Nuclear receptor subfamily 0 group B member 1 (Homo sapiens, UniProt P51843). The experiment in a line: Luminescence-based cell-based high throughput dose response assay for inhibitors of the orphan nuclear receptor subfamily 0, group B, member 1 (DAX1; NR0B1). [Related pubchem assays (depositor defined):AID504766, AID504790]. It counts as functional.
Sequence of Nuclear receptor subfamily 0 group B member 1 (P51843 whole entry): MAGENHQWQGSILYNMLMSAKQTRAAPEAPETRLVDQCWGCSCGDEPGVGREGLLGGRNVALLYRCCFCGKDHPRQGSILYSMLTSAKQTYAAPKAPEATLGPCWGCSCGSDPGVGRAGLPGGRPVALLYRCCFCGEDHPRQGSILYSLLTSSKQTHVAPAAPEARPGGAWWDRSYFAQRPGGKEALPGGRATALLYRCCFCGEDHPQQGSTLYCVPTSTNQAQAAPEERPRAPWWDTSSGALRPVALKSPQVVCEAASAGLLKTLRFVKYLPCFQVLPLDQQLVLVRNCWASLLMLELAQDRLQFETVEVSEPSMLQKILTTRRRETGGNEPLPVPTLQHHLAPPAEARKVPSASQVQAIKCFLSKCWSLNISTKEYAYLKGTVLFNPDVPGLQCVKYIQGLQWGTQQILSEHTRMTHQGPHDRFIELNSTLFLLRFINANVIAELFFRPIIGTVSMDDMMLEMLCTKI
Test [2] relates to HEK293. Briefly: cells. Type of test: functional, cell-based. Particulars: Homo sapiens.
A short description of test [3]: Fluorescence polarization-based biochemical high throughput dose response assay for activators of the Protein Kinase A-R1A (PKA-R1A) complex. [Related pubchem assays (depositor defined):AID504704, AID504707, AID504799, AID504800].
Test [4] is described as follows: Fluorescence polarization-based biochemical high throughput dose response assay for activators of the Protein Kinase A-R2B (PKA-R2B) complex. [Related pubchem assays (depositor defined):AID504700, AID504704, AID504796, AID504797]. On the technique in general: Fluorescence polarisation rises when a labelled molecule tumbles more slowly, as on binding a larger partner.

Another test deals with NIH3T3. Briefly: cytotoxicity in NIH-3T3 fibroblasts, dose response, cytotoxicity control for antifungal drug resistance project, cell-based, Alamar Blue, fluconazole, dry powder (AID 488809). It counts as functional. The note with it: Mus musculus. (The colour change of resazurin is a common sign of viable cells or microbes.)
The test system of a further test is Candida albicans. The experiment in a line: growth inhibition of resistant C. albicans, dose response, CaCi-8, fluconazole, Alamar Blue, dry powder (AID 488807). Type of test: functional, organism-based.
Test [5] concerns the target T1, Endoribonuclease toxin MazF (Escherichia coli K-12, UniProt P0AE70).
T1 sequence (P0AE70 whole entry): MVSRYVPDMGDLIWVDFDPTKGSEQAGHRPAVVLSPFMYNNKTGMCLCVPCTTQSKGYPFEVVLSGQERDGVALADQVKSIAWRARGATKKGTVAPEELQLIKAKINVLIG
Briefly: SAR analysis of small molecule activators of the MazEF TA System via a fluorescence-based single-stranded RNase assay counterscreen. [Related pubchem assays (depositor defined):AID504720, AID504743]. It counts as functional.

Test [6] has as its target T1, Endoribonuclease toxin MazF. The experiment in a line: fluorescent RNA oligo signal without MazF, dose response, counter-screen for MazEF activator project, biochemical, fluorescence, single-stranded RNase substrate (AID 588502). It counts as functional.
For test [7] the target is unchanged. The experiment in a line: MazF toxin RNase activators, dose response, biochemical, fluorescence, single-stranded RNA substrate, uHTS hits (AID 588481). It counts as functional.
The next test concerns MEF. The experiment in a line: SAR analysis of small molecule cytotoxicity of MazEF TA System activators in embryonic fibroblast (MEF) cells. [Related pubchem assays (depositor defined):AID504720, AID504743]. Type of test: functional. Particulars: Mus musculus.
Test [8] deals with T1, Endoribonuclease toxin MazF. Briefly: MazF endoribonuclease activators, SAR follow-up, biochemical, fluorescence, single-stranded RNA substrate (AID 588603). It counts as functional.
In the next test the target is Cysteine protease ATG4B (Homo sapiens, UniProt Q9Y4P1). It counts as functional.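 Also: Fluorescence-based dose-response confirmation assay measuring inhibition of ATG4B activity.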
Sequence of Cysteine protease ATG4B (Q9Y4P1 whole entry): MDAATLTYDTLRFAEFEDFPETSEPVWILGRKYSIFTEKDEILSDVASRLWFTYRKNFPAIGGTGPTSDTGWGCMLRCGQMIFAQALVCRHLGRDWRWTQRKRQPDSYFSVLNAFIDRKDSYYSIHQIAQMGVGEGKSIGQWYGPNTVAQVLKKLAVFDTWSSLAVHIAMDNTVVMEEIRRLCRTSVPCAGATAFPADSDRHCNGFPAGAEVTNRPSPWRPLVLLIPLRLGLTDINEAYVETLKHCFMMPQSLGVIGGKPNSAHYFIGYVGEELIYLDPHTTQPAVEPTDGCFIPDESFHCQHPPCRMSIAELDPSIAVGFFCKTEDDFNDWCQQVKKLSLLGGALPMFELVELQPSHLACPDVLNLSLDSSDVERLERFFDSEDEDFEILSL
For test [9], the system named is Streptococcus sp. 'group A'. The experiment in a line: growth inhibition of control SK(-) GAS strain, dose response, counter-screen for streptokinase expression inhibitor project, luminescence, kanamycin, BacTiterGlo, confirmation (AID 1900). It counts as functional, organism-based. For orientation: A counterscreen serves to expose hits that act by an unwanted route or on another target.

For another test, the target named is T2, Streptokinase A (Streptococcus pyogenes serotype M1, UniProt P10520).
T2 sequence (P10520 whole entry): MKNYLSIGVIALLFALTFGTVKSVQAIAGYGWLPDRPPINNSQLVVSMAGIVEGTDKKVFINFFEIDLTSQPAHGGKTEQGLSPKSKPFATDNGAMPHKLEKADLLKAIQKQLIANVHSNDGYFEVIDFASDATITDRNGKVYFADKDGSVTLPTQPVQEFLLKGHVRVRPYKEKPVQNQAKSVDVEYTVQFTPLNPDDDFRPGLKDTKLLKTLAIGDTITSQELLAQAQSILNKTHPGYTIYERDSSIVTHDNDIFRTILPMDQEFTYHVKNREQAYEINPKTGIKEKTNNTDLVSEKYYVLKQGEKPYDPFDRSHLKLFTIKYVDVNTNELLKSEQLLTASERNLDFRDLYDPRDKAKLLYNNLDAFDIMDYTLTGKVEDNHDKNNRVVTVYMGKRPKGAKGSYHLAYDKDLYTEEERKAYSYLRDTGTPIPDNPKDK
The experiment in a line: S. pyogenes streptokinase expression inhibitors, potency, dose response, plasminogen activation absorbance, OD405 (AID 1914).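 Also: secreted streptokinase activity via plasminogen activation per viability signal from cell pellet.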 It counts as functional, Streptococcus pyogenes M1 GAS.

A further test has as its system Streptococcus. The experiment in a line: Group A Streptococcus viability loss, dose response, counter-screen for streptokinase expression inhibitor project, luminescence, BacTiterGlo (AID 1915).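 Also: potency for reduction of bacterial viability or growth.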 Type of test: functional, organism-based.
In the next test the target is Phospholipase A2 (Homo sapiens, UniProt P04054). It counts as functional.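 Also: confirmatory dose-response counterscreen on phospholipase A2, testing hits that came from an ultra-high-throughput screen for ATG4B inhibitors.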
Sequence of Phospholipase A2 (P04054 whole entry): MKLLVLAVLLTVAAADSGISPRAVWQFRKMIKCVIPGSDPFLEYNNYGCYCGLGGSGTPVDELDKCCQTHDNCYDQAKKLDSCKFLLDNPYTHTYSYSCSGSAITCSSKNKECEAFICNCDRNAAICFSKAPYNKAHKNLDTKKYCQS
For test [10], the target named is Dual specificity protein phosphatase 3 (Homo sapiens, UniProt P51452). The experiment in a line: SAR VHR1 Fluorescent Assay for In Vitro dose response studies Set 3. [Related pubchem assays (depositor defined):AID1654, AID1661, AID1878]. Type of test: functional.
Sequence of Dual specificity protein phosphatase 3 (P51452 whole entry): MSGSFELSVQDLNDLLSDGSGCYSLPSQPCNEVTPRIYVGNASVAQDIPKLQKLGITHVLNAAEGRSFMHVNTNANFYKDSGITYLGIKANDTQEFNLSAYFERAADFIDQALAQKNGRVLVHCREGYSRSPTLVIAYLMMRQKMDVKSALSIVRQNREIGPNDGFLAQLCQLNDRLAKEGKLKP
In test [11] the target is T3, Insulin-degrading enzyme (Homo sapiens, UniProt P14735).
T3 sequence (P14735 whole entry): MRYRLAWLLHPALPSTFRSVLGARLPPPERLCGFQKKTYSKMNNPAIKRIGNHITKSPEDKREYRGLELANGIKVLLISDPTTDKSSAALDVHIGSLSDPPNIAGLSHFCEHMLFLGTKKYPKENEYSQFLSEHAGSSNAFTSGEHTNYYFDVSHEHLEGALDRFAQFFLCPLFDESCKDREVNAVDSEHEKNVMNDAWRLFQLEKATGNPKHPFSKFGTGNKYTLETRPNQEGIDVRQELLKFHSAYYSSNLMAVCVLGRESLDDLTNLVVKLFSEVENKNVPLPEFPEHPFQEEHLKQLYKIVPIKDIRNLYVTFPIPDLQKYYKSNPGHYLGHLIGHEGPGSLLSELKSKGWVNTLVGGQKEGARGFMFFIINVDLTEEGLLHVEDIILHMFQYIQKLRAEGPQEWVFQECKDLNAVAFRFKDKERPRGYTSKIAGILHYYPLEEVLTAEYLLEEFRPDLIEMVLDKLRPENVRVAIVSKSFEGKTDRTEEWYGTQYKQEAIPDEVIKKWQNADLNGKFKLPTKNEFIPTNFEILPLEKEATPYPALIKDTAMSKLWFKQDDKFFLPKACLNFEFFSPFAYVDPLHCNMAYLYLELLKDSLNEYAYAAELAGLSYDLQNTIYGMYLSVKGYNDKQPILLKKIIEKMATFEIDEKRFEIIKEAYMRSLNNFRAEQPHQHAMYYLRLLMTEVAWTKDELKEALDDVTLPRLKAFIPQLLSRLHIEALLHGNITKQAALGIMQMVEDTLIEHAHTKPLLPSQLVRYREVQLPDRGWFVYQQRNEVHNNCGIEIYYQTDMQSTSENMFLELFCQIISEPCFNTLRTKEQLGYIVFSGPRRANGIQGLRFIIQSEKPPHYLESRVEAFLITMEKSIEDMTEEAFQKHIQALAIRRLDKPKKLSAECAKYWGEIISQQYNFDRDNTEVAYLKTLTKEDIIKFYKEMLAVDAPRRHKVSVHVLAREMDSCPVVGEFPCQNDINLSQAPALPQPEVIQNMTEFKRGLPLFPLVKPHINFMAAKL
The experiment in a line: activators of recombinant IDE enzyme, dose response, counter-screen for IDE activator project, biochemical, fluorescence polarization (AID 588681).

The test system of test [12] is HEK293. Briefly: HEK cell cytotoxicity by LDH release, dose response, cytotoxicity control for IDE activator project, fluorescence, HEK cells (AID 588440).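 Also: cytotoxicity by LDH release measuring loss of membrane integrity.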 Particulars: Homo sapiens. It counts as functional, cell-based.
In test [13] the target is T4, Fibrinogen beta chain (Homo sapiens, UniProt P02675). Briefly: Fluorescence polarization-based biochemical high throughput dose response assay to identify inhibitors that disrupt the binding of a cyclic peptide (Tn7) to the fibrin proteolytic product D-Dimer and fragment E complex [DD(E )].
T4 sequence (P02675 whole entry, the tested form may be a part): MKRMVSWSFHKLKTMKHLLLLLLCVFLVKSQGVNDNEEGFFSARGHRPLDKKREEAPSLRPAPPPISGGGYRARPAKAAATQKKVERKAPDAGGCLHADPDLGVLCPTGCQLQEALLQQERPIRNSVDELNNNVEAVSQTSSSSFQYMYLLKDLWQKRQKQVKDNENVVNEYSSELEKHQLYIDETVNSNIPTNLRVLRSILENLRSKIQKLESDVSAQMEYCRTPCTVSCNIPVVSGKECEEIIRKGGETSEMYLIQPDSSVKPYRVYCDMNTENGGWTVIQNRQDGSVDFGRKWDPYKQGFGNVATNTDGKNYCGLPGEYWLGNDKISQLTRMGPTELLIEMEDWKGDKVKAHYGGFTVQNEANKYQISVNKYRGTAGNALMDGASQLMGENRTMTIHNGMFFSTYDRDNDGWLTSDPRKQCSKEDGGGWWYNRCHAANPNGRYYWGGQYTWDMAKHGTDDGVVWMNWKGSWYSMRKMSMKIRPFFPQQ
Test [14] has as its target T4, Fibrinogen beta chain. Briefly: Fluorescence polarization-based biochemical high throughput dose response assay to identify inhibitors that disrupt the binding of a cyclic peptide (Tn6) to the fibrin proteolytic product D-Dimer and fragment E complex [DD(E )].
Test [15] concerns the target T3, Insulin-degrading enzyme. Briefly: activators of endogenous IDE in HEK cells, dose response, cell-based, fluorescence polarization (AID 588439). Type of test: functional.
Test [16] addresses UDP-galactopyranose mutase (Mycobacterium tuberculosis, UniProt P9WIQ1). The experiment in a line: Inhibitors of Mycobacterium tuberculosis UDP-galactopyranose mutase (UGM) enzyme Measured in Biochemical System Using Plate Reader - 2105-02_Inhibitor_Dose_CherryPick_Activity. [Related pubchem assays (depositor defined):AID504439].
The test system of test [17] is HEK293. Briefly: optical interference in Abeta FP readout, dose response, artefact control for IDE activator project, biochemical, fluorescence polarization (AID 588442). It counts as functional, cell-based. Particulars: Homo sapiens.
The next test has as its target T5, ORF 73 (Human herpesvirus 8, UniProt O40947).
T5 sequence (O40947 whole entry): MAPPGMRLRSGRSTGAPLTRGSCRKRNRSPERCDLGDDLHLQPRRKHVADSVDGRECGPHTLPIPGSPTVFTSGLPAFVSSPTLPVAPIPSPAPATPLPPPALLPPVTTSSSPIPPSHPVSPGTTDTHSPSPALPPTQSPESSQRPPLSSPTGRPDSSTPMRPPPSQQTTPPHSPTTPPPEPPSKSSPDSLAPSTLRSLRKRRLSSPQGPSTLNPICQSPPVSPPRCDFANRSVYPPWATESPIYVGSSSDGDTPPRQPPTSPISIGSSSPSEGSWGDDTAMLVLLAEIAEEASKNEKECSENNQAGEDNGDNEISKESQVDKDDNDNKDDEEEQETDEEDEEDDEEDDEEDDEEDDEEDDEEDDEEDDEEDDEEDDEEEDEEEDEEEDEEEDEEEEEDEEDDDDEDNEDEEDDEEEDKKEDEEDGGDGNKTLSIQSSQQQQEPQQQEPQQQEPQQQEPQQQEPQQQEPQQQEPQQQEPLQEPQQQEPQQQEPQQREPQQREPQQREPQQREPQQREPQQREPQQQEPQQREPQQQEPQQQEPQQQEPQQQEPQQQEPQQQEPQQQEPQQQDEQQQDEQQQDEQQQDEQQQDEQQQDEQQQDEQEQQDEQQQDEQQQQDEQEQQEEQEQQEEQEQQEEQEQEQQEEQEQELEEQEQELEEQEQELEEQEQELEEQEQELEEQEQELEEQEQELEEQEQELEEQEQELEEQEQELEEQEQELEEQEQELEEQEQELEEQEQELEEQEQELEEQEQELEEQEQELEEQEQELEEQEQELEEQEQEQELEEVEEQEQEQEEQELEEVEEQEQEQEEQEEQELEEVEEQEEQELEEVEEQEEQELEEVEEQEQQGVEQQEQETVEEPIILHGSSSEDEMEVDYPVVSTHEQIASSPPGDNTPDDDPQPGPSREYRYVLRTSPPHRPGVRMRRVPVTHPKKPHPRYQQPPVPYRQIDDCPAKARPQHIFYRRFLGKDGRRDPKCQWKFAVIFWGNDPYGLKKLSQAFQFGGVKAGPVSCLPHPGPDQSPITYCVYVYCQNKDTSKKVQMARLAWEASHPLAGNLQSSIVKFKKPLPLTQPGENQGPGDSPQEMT
Briefly: inhibitors of C-LANA binding to LBS DNA, dose response, biochemical, fluorescence polarization, cherry-picked samples (AID 504725).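 Also: fluorescence polarization of a labeled DNA duplex reporting LANA DNA binding; potency is for inhibitors that block LANA binding to the DNA.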 Further details: species or system Human gammaherpesvirus 8.

Another test has as its target Troponin, cardiac muscle (Homo sapiens, UniProt P19429+P45379+P63316). Briefly: Fluorescence-based biochemical high throughput dose response assay for activators of the calcium sensitivity of cardiac Regulated Thin Filaments (RTF). [Related pubchem assays (depositor defined):AID493008, AID493018, AID504382, AID504383]. Type of test: protein-complex assay.

Sequence of UDP-galactopyranose mutase (P9WIQ1 whole entry): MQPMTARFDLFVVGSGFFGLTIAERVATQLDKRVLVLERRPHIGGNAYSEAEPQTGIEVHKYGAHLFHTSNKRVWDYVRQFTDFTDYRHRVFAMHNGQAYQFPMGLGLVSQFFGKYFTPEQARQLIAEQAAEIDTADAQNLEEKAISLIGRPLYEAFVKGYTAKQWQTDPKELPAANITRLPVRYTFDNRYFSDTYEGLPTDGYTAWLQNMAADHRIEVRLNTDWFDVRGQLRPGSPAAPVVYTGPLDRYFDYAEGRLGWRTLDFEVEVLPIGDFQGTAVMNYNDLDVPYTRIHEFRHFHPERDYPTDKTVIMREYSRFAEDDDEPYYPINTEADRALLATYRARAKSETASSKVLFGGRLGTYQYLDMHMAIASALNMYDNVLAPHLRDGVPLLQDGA

Consider `COc1ccc(N2C(=O)C3C(c4ccc(OC)cc4O)NC(Cc4ccccc4)(C(=O)O)C3C2=O)cc1` (stereo unspecified), for which the IC50 (in [1]; with HEK293 [2]) was > 67.5 µM (inactive) throughout.

`Nc1nc(O)c2nc(Br)n([C@@H]3O[C@@H]4COP(=O)(O)O[C@H]4[C@H]3O)c2n1`: the EC50 in test [3] was 7.83 µM (active); in test [4], 2.15 µM (active).

For `CC1CCN(C(=O)Cn2c3ccc(F)cc3c3nc4n(c(=O)c32)CCCS4)CC1`, the AC50 in the test on NIH3T3 was 41.8 µM (active); in the test on Candida albicans, 2.96 µM (active).

Take `CCN1C(C)=C(C)S/C1=C1\SC(=S)N(C2CCCCC2)C1=O`: the EC50 in [5] is > 99 µM (inactive); in test [6] it was > 99 µM (inactive); in test [7] it was 29.1 µM (inactive); in test [8], 22.4 µM (inactive). For the same compound, the CC50 in the test with MEF was > 99 µM (inactive).

With `COc1cc(/C=C2\S/C(=N\c3ccccc3)N(CCc3c[nH]c4ccccc34)C2=O)ccc1OC(C)C(=O)O` (stereo unspecified), the IC50 on Cysteine protease ATG4B is 8.13 µM (active); on Phospholipase A2, 5.47 µM (active). In addition, the EC50 in test [9] is 943 nM (active); at Streptokinase A it was 4.12 µM (active); in the test on Streptococcus it was 11.5 µM (active).

Consider `COc1ccc(C(=O)Nc2cc(C)nn2-c2nc3ccccc3s2)cc1`, for which the IC50 in test [10] is 36.3 µM (active).

As for `Oc1ccc2ccc3cccc[n+]3c2c1`, the EC50 at Insulin-degrading enzyme [11] was > 54.7 µM (inactive); at Insulin-degrading enzyme [15], > 54.7 µM (inactive); with HEK293 [17], > 54.7 µM (inactive); at Troponin, cardiac muscle, 1.21 µM (active). In addition, the IC50 in the test with HEK293 [12] was > 89.2 µM (inactive); at Fibrinogen beta chain [13], > 9.26 µM (active); at Fibrinogen beta chain [14], > 83.3 µM (inactive). In addition, the figures for the AC50 (in test [16]; on ORF 73) were 3.84 µM (active) and 1.61 µM (active), respectively.
